In ChEMBL document CHEMBL5321267, “Phomactinine, the First Nitrogen-Bearing Phomactin, Produced by Biatriospora sp. CBMAI 1333” (J Nat Prod, 2023):
Activity calls are given as the source filed them. The calls are words filed in the database; no cut-off is given here.

Target: Platelet-activating factor receptor (Homo sapiens) (UniProt P25105)
Test: Antagonist activity at PAFR in human KB cells assessed as inhibition of cPAF induced IL-8 release at 10 to 25 uM preincubated for 24 hrs followed by cPAF stimulation and measured after 6 hrs by ELISA method
Assay type: functional, cell-based
Conditions: filed as antagonist, dose 10-25 µM, time 30.0 hrs

Chain of Platelet-activating factor receptor (Homo sapiens) (P25105 whole entry): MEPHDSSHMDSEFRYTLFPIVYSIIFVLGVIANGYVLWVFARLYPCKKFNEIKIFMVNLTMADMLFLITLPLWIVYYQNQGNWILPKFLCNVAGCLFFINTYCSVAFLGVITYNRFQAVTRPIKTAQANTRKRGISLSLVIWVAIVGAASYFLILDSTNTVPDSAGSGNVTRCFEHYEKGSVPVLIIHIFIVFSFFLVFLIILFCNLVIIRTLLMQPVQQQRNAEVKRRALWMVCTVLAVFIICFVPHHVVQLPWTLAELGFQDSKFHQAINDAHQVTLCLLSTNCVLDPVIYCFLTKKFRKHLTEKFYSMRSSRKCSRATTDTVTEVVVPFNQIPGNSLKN

## C/C1=C\CC[C@@]2(C)O[C@@H]2[C@@]23C(=O)NC=C2[C@@](C)(CC1)[C@H](C)C[C@@H]3O
  inhibition: Active
